# Source: article PMC9995496, “A screen for MeCP2-TBL1 interaction inhibitors using a luminescence-based assay” (Scientific Reports, 2023)
# Target: T1, MeCP2-TBL1 interaction (MeCP2-SmBiT / TBL1-LgBiT) (Mus musculus, UniProt Q9QXE7)
# T1 construct: expressed in transfected cells; crude lysate used as a cell-free assay
# T1 sequence (Q9QXE7 166-527): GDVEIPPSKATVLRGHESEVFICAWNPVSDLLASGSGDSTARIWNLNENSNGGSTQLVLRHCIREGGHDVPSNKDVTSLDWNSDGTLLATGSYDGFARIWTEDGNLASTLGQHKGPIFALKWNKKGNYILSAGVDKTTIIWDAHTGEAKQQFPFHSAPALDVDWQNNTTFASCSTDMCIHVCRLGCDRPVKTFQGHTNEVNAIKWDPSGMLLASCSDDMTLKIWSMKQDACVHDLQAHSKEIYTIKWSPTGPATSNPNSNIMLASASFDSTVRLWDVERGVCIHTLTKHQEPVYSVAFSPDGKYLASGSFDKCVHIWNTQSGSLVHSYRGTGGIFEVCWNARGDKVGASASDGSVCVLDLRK
# Assay: MeCP2-TBL1 NanoLuc luciferase complementation assay (cell-free, extracts of transfected HEK293 cells)
# Type: binding, human
# Settings: primary screen of Asinex library, single well per compound
# Text: To facilitate the discovery of inhibitors of the interaction between MeCP2 and TBL1/TBLR1, we set out to devise a simple and scalable biochemical assay for measuring the interaction between these two proteins. We initially explored the possibility of screening compound libraries using a previously established fluorescence polarization assay that depends on purified recombinant TBL1/TBLR1[26]. […] The resulting luminescence signal depends on the affinity between the two interacting proteins of interest (Fig. 1A). This method was originally developed to allow for the interrogation of protein–protein interactions in vivo. However, in order to facilitate large scale screening of chemical libraries, we adapted the assay for use as a cell-free system.
# We fused the large N-terminal fragment of NanoLuc (LgBiT) to the C-terminus of the WD repeat domains of both TBL1 and TBLR1, and the small C-terminal fragment of NanoLuc (SmBiT) to the C-terminus of the C-terminal half of MeCP2 (Fig. 1B and C). This region of MeCP2 contains the NID (NCoR interaction domain)—the motif in MeCP2 that binds to TBL1/TBLR1.
# The AgeI-NotI restriction fragment (encoding EGFP) was then replaced with a codon optimized SmBiT sequence to yield the MeCP2-SmBiT expression plasmid. The TBL1-LgBiT expression vector was derived from a TBL1-mCherry plasmid[25] by replacing the AgeI-NotI restriction fragment (encoding mCherry) with a codon optimized LgBiT sequence. SmBiT-PRKACA and LgBiT-PRKAR2A plasmids are commercially available (Promega, N203 and N204).
# Cells were harvested after 24 h and cell pellets were stored at − 80 °C.
# In the screens described here, the lysate obtained from a single 15 cm plate was used for 2.5 384-well assay plates. NanoLuc substrate (furimazine) (Promega, N1110) was diluted 1000-fold in passive lysis buffer (Promega, E1941) and added 1:1 to the lysate. Screening libraries were purchased from Asinex[40] and ApexBio (FDA-approved Drug Library, L1021). Compounds were dispensed using an Echo acoustic dispenser and tested at a final concentration of 20 µM in a total assay volume of 20 μl in 384-well plate format. DMSO was added to each well at a final concentration of 0.2% (v/v) and wells containing only DMSO were used as negative control. After 30 min incubation at room temperature, luminescence was measured on a Tecan M1000 multi-mode plate reader. Raw luminescence reads from each well on each plate were normalized to the median luminescence signal for that plate. In the ApexBio screen, the scaled and normalized PKA signal for each compound was subtracted from the MeCP2-TBL1 signal for the same compound. After plate normalization the robust SSMD (SSMD*) was calculated as described elsewhere. A threshold of SSMD* ≥ 3 was applied for discerning primary hits.
# Assays were performed as described above except instead of a single concentration, a threefold serial dilution ranging from 60 to 0.03 μM was tested in triplicate for each of the compounds. Half-maximal inhibitory concentrations were calculated using global nonlinear regression by fitting the response data sets of all compounds simultaneously with a four-parameter logistic curve of log inhibitor concentration versus normalized luminescence using GraphPad Prism. During fitting, the maximum and minimum curve values were shared between the data sets.
row,SMILES,Inhibition percent
1,COCCNC(=O)CN1CCCC1c1nc(C)c2c(n1)N(Cc1ccccc1)C(=O)CC2 (stereo not shown) [BDE_24735834],-1.63
2,CNc1nc(C2CCCNC2)nc2c1CCN(C(=O)C1(Oc3ccccc3)CCCCC1)C2 (stereo not shown) [BDE_26713143],-1.93

# Results, then the molecule that gave them:
row,Inhibition percent,SMILES
1,-2.79,NC(=O)c1cccc(-c2nccnc2C2CCCN(C(=O)COc3ccc(F)cc3)C2)c1 (stereo not shown) [BDD_27905103]
2,-0.10,Cc1nn(C)cc1C(=O)N1CCCCC1c1ncccc1C(=O)NCc1ccccc1 (stereo not shown) [BDE_24469941]

# Same assay, conditions: primary screen of the Asinex library, sheet "Sargen output Asinex library", one well per compound
row,SMILES,Inhibition percent [%]
1,NC(=O)c1cccc(-c2nccnc2C2CCCN(CCCc3ccccc3)C2)c1 (stereo not shown) [BDD_27892119],-1.40
2,CC(=O)N(C)Cc1cc(N(C)C)nc(C2CCCN2C(=O)Cc2ccc3c(c2)CCCC3)n1 (stereo not shown) [BDE_23426204],-14.24
3,Cc1ccc(CC(=O)N2CCCC(c3ncccc3C(=O)NCc3ccccc3)C2)cc1C (stereo not shown) [BDE_24458967],-0.34
4,O=C(NCCc1ccc(Cl)cc1)C1(Cc2cc(-c3ccccc3)no2)CCCO1 (stereo not shown) [BDE_24757019],8.09
5,CC1CCN(C(=O)CN2CCC(C3CCCCN(CCc4ccccc4)C3=O)CC2)CC1 (stereo not shown) [BDE_25214814],-2.53
6,CC(=O)N1CCc2nc(C3CCCN(C)C3)nc(NCCCc3ccccc3Cl)c2C1 (stereo not shown) [BDE_25356631],2.24
7,CC(=O)N1CCC(c2nc3c(c(NCCOc4cccc(C)c4C)n2)CN(C)CC3)CC1 [BDE_25367865],1.06
8,CC(=O)N1CCc2nc(C3CCN(C)CC3)nc(NCCCN(C)c3ccccc3)c2C1 [BDE_25368265],-2.49
9,O=C(Cc1c[nH]c2ccccc12)N1CCC2(CC=CCN(Cc3ccc(F)cc3)C2=O)CC1 [BDE_25848651],-0.14
10,COCCN1CC=CCC2(CCN(CC(=O)N(Cc3ccccc3)C(C)C)CC2)C1=O [BDE_25851451],-2.37
11,Cc1nc(C2CCCN2C(=O)c2ccncc2)nc2c1CCC(=O)N2CCc1ccccc1 (stereo not shown) [BDE_26909882],-1.75
12,O=C(c1ccccn1)N1CCCC1c1cc(CCOc2cccc(C(F)(F)F)c2)[nH]n1 (stereo not shown) [BDE_27113075],-1.96
13,O=C(CCCNc1ncccn1)N1CCCC1c1cncc(Cc2cccc(Cl)c2)n1 (stereo not shown) [BDE_27217604],-3.79
14,Cc1cc(C2CCCN(Cc3ccc(-c4ccccc4C(=O)O)o3)C2)ccn1 (stereo not shown) [BDE_30686588],6.28
15,CNc1cccc(C2CCCN2Cc2ccc(-c3ccccc3C(=O)O)cc2)n1 (stereo not shown) [BDE_30687673],-2.37
16,O=C(O)c1ccccc1CN1CCCC(c2ncc(Cc3ccc(Cl)cc3)o2)C1 (stereo not shown) [BDE_33511194],-2.52

# Continued, values first:
row,Inhibition percent [%],SMILES
1,-2.00,CN(CCC(=O)N1CCCC1c1cncc(Cc2cccc(Cl)c2)n1)Cc1cccnc1 (stereo not shown) [BDE_27213557]
2,-0.80,Cc1nccc(C2CCCN2Cc2ccc(-c3ccccc3C(=O)O)cc2)n1 (stereo not shown) [BDE_30687639]
3,0.39,COc1cccc(Cc2cnc(C3CCCCN3C(=O)COc3ncnc4ccccc34)o2)c1 (stereo not shown) [BDE_33513545]
4,7.15,COc1cccc(-c2cc(C(=O)N3CCCCC3c3ncc(Cc4ccccc4)o3)on2)c1 (stereo not shown) [BDE_33514162]

# Same assay, conditions: primary screen of the Asinex library, sheet "Sargen output Asinex library", one well per compound, Batch Ref. 1
row,SMILES,Inhibition percent [%]
1,COc1ccc(CCC(=O)N2CCCC(c3cncc(-c4cccc(OC)c4)n3)C2)cc1 (stereo not shown) [BDD_27924033],11.34
2,Cc1cc(Nc2cccc(C3CCCN(C(=O)C4CCCCN4C(=O)OC(C)(C)C)C3)n2)[nH]n1 (stereo not shown) [BDD_30366487],3.82
3,O=C(NCc1ccccc1)c1cccnc1C1CCCCN1CC(=O)N1CCNC1=O (stereo not shown) [BDE_24470675],-2.87
4,Cc1ccccc1OCCN1C(=O)CCc2c(C)nc(CN(C)C(=O)C3CCCC3)nc21 [BDE_24687458],-1.66
5,Cc1nnc(N2CCC(C3CC=CCN(Cc4ccc(F)cc4)C3=O)CC2)c2ccccc12 (stereo not shown) [BDE_24723072],-0.22
6,Cc1nc(C2CCN(C(=O)C3CCCC3)CC2)nc2c1CCC(=O)N2CCc1ccccc1 [BDE_24748773],-0.38
7,Cc1c(C(=O)N2CCC(C3(C)CCCCN(CCc4ccccc4)C3=O)CC2)cnn1C (stereo not shown) [BDE_25215150],-0.77
8,COCCc1ncc(CN2CCCC2c2cc(Cc3cccc(OC)c3)cc(C)n2)cn1 (stereo not shown) [BDE_25403133],-4.16
9,COc1ccc(Cc2ccc(C3CCCN3C(=O)CCn3ncc4ccccc43)nc2)cc1 (stereo not shown) [BDE_25650039],3.10
10,Cc1cc(CCCC(=O)N2CCCC2c2cccc(Nc3nncs3)n2)ccc1F (stereo not shown) [BDE_26594959],1.13
11,Cc1nc(C2CCN(C(=O)c3cccnc3)CC2)nc2c1CCCN2CCc1ccccc1 [BDE_27576245],-0.64
12,Cc1nc2c(c(Nc3ccccn3)n1)CCN(C(=O)C1CCCCN1C(=O)OC(C)(C)C)C2 (stereo not shown) [BDE_27755327],-1.68
13,O=C(O)c1ccccc1-c1ccc(CN2CCCC2c2ccncn2)cc1 (stereo not shown) [BDE_30687637],-2.12
14,COc1cccc(Cc2cnc(C3CCCN(C(=O)Cn4ncc5ccccc5c4=O)C3)o2)c1 (stereo not shown) [BDE_33507930],-1.97
15,O=C(Cn1ncc2ccccc2c1=O)N1CCCC(c2ncc(Cc3ccc(Cl)cc3)o2)C1 (stereo not shown) [BDE_33507934],0.79
16,COc1ccccc1Cc1cnc(C2CCCN(C(=O)c3cc(-c4ccc(F)cc4)no3)C2)o1 (stereo not shown) [BDE_33509516],6.24
17,COc1ccccc1Cc1cnc(C2CCCN(S(=O)(=O)c3cn(C)nc3C)C2)o1 (stereo not shown) [BDE_33511387],4.61
18,COc1ccccc1Cc1cnc(C2CCCN(C(=O)c3ccc(Cc4ccccc4)nc3)C2)o1 (stereo not shown) [BDE_33511644],3.75
19,O=C(NCC(=O)N1CCCCC1c1ncc(Cc2ccc(Cl)cc2)o1)c1cncc(O)c1 (stereo not shown) [BDE_33513655],-11.18

# Next, values leading:
row,Inhibition percent [%],SMILES
1,-0.41,CNCc1cc(NC)nc(C2CCCN2C(=O)c2cccc(Oc3ccccc3)c2)n1 (stereo not shown) [BDE_23425118]
2,-3.75,CN(Cc1cc(N(C)C)nc(C2CCCCN2)n1)C(=O)c1ccccc1-c1ccccc1 (stereo not shown) [BDE_23459438]
3,-0.81,Nc1nc(-c2ccccc2)nc2nc(C3CCCN(C(=O)COc4ccccc4)C3)ccc12 (stereo not shown) [BDE_26160293]
4,34.22,CN(C)c1ncc(-c2cccc(F)c2)c(C2CCCCN2C(=O)COc2ccccc2)n1 (stereo not shown) [BDE_26725534]
5,20.50,COc1cccc(CC(=O)N2CCC(c3nc(N(C)C)ncc3-c3ccccc3F)CC2)c1 [BDE_26728718]
6,3.33,O=C(Cn1ncc2ccccc2c1=O)N1CCCCC1c1ncc(Cc2ccccc2F)o1 (stereo not shown) [BDE_33507923]
7,1.49,COc1ccccc1Cc1cnc(C2CCCCN2C(=O)Cn2ncc3ccccc3c2=O)o1 (stereo not shown) [BDE_33513118]
8,6.68,O=C(c1cc(-c2ccccc2F)n[nH]1)N1CCCCC1c1ncc(Cc2ccccc2)o1 (stereo not shown) [BDE_33513466]
9,-1.92,O=C(COc1ncnc2ccccc12)N1CCCCC1c1ncc(Cc2ccc(F)cc2)o1 (stereo not shown) [BDE_33513539]
10,4.13,O=C(COc1ncnc2ccccc12)N1CCCCC1c1ncc(Cc2cccc(Cl)c2)o1 (stereo not shown) [BDE_33513542]
11,18.16,COc1cccc(-c2cc(C(=O)N3CCCCC3c3ncc(Cc4ccccc4OC)o3)[nH]n2)c1 (stereo not shown) [BDE_33513613]
12,18.69,COc1ccc(OC)c(-c2cc(C(=O)N3CCCCC3c3ncc(Cc4ccccc4)o3)[nH]n2)c1 (stereo not shown) [BDE_33513704]
